For one experiment, the system named is J2 of M. incognita. The experiment in a line: Recovery assay using distilled water (nematicidal vs nematostatic effect). It counts as in vivo. Here is the method: (§1) FIG. 9—(A) Bioassay showing the effect of the commercial compounds on second-stage juveniles of M. incognita after 48 hours' exposure. 1—Control dH20, 2—DECE, 3—Glycose 10%, 4—Glycose 20%, 5—D-Pinitol (80 ug), 6—D-Pinitol (150 ug), 7—L-canavanina (80 ug), 8—L-canavanina (150 ug), 9—palmitic acid (80 ug), 10—palmitic acid (150 ug), 11—citric acid (80 ug), 12—citric acid (150 ug), 13—malic acid (80 ug), 14—malic acid (150 ug), 15—cis-aconitic acid (80 ug), 16—cis-anonitic acid (150 ug), 17—trans-anonitic acid (80 ug), 18—trans-aconitic acid (150 ug), 19—50 mM Tris/HCl pH 8, 20—50 mM acetic acid pH 5, 21—L-phenylamine (80 ug), 22—L-phenylamine (150 ug), 23—L-methionine (80 ug), 24—L-methionine (150 ug), 25—L-tryptophan (80 ug), 26—L-tryptophan (150 ug), 27—S-carboxymethylcistein (80 ug), 28—S-carboxymethylcisteine (150 ug), 29—Zantotoxine (80 ug), 30—Zantotoxine (150 ug), and 31—Glucose 20%+L-canavanine (15) ug). B—Evaluation of the effect of the different commercial compounds after the recovery assay using distilled water.
(§2) FIG. 10—(A) Bioassay showing the effect of the commercial compounds and their compositions on second-stage juveniles of M. incognita (J1) after 48 hours' exposure. C+ positive control (extract); C−: negative control (water); 2: palmitic acid; 3: S-carboxymethylcisteine; 4: trans-aconitic acid; 5: glucose. […] (B)—Evaluation of the effect of the different commercial compounds and their compositions after the recovery assay using distilled water. C+ positive control (extract); 2: palmitic acid; 3: S-carboxymethylcisteine; 4: trans-aconitic acid; 5: glucose.
(§3) In this context, compounds produced commercially with biological functions identified after research in the literature and present in the nematotoxic fractions of C. ensiformis were tested in bioassay against M. incognita juveniles (FIG. 9A).

The test system of experiment [1] is second-stage juveniles (J2) of M. incognita. The experiment in a line: Bioassay against second-stage juveniles (J2) of M. incognita, 48 hours' exposure (paralysis). It counts as in vivo. The conditions noted are these: for nematotoxic effect on J2 / J2 paralyzed / % paralyzed nematodes / % of paralyzed nematodes: 48 hours' exposure; for % of paralyzed nematodes: 0.25 g/L (of each compound). Here is the method: as §1, §2, §3

Regarding `O=C(O)/C=C(/CC(=O)O)C(=O)O` [cis-aconitic, cis-aconitic acid], in the experiment on J2 of M. incognita (150 μg/300 μL), the “nematicidal activity after the recovery assay” value was 40%.

Turning to `N[C@@H](Cc1c[nH]c2ccccc12)C(=O)O` [L-triptofane], the “nematotoxic effect on J2” value in experiment [1] (80 μg/300 μL) and in experiment [1] (150 μg/300 μL) was “not capable of affecting the J2” each time.

For `N=C(N)NOCC[C@H](N)C(=O)O` [L-canavanine], the “nematotoxic effect on J2” value in experiment [1] (80 μg/300 μL) was “did not exhibit any nematotoxic activity”. In addition, the “juveniles remained paralyzed after the recovery assay” value in the experiment with J2 of M. incognita (105 μg/300 μL) was found to be 25%.

For the compound `COc1c2occc2cc2ccc(=O)oc12` [Xantotoxin], the J2 paralyzed in experiment [1] (80 μg/300 μL) and in experiment [1] (150 μg/300 μL) was 87% each time. The “kind of effect confirmed by recovery assay” value (“kind of effect confirmed” for short) in the experiment on J2 of M. incognita (80 μg/300 μL) and with J2 of M. incognita (150 μg/300 μL) was “nematicidal effect” in each case.

Regarding S-carboxymethylcisteine, the J2 paralyzed result in experiment [1] (80 μg/300 μL) and in experiment [1] (150 μg/300 μL) was “about 90%” in each case. The “% paralyzed nematodes” value is less than 43.03% in experiment [1] (0.125 g/L (of each compound)) and 43.03% in experiment [1] (0.17 g/L (of each compound)). Moreover, the “kind of effect confirmed” value in the experiment on J2 of M. incognita (80 μg/300 μL) and in the experiment with J2 of M. incognita (150 μg/300 μL) was “nematostatic effect” each time.

In the case of `CCCCCCCCCCCCCCCC(=O)O` [palmitic acid], the “% paralyzed nematodes” value in experiment [1] (0.125 g/L (of each compound)) is given as less than 7.66%; in experiment [1] (0.17 g/L (of each compound)), 7.66%. Further, the “% of paralyzed nematodes” value in experiment [1] is recorded as 33.86%. Besides, the “kind of effect confirmed” value with J2 of M. incognita (80 μg/300 μL) and in the experiment with J2 of M. incognita (150 μg/300 μL) was “nematostatic effect” in each case.

Take `CO[C@H]1[C@H](O)[C@@H](O)[C@@H](O)[C@H](O)[C@@H]1O` [D-pinitol]: the “nematotoxic effect on J2” value in experiment [1] (80 μg/300 μL) and in experiment [1] (150 μg/300 μL) was “did not exhibit any toxic effect” throughout.

`O=C(O)/C=C(\CC(=O)O)C(=O)O` [trans-aconitic acid] yielded a J2 paralyzed in experiment [1] (80 μg/300 μL) of 90%. The “% paralyzed nematodes” value is reported as less than 11.12% in experiment [1] (0.125 g/L (of each compound)) and 11.12% in experiment [1] (0.17 g/L (of each compound)). Besides, in experiment [1], the “% of paralyzed nematodes” value was determined as 27.08%. The “nematicidal activity after the recovery assay” value in the experiment on J2 of M. incognita (150 μg/300 μL) is given as 98%.

Turning to `O=C[C@H](O)[C@@H](O)[C@H](O)[C@H](O)CO` [glucose], the “% paralyzed nematodes” value in experiment [1] (0.125 g/L (of each compound)) was 0%. Moreover, in experiment [1] (solution 10% (W/V), 48 hours), the “paralyzing of nematodes” value was “paralyzing most of the nematodes”. For the same compound, in the experiment on J2 of M. incognita (solution 10% (W/V)), the “kind of activity confirmed by recovery assay” value is “nematostatic activity”.

With `N[C@@H](Cc1ccccc1)C(=O)O` [L-phenylamnine], the “nematotoxic effect on J2” value in experiment [1] (80 μg/300 μL) and in experiment [1] (150 μg/300 μL) was “not capable of affecting the J2” in each case.

Source of the values: US9750247B2, “Nematotoxic composition of synergistic effect, use of a nematotoxic composition of synergistic effect” (EMPRESA BRASILEIRA DE PESQUISA AGROPECUARIA—EMBRAPA, priority 2012, dated 2017).
